In patent US11382873B1, “Oral administration of ketamine” (Vitalis Analgesics LLC, priority 2021, dated 2022):
Where two headings read alike, the source gives them in different places.

Experiments:
[1] = cited from earlier work
[2] = system: adult emergency department (ED) patients with acute musculoskeletal pain; assay: Reduction of acute musculoskeletal pain (NRS) in adult ED patients, trial of Example 1/5; settings: NRS 0-10, 60 minutes post medication; doses of Table 1 (dual route ketamine 0.5 mg/kg + aspirin 325 mg; IV ketamine 0.3 mg/kg; IV morphine 0.1 mg/kg; MSIR 15 mg; Percocet 10 mg); comparators from similar trials, same center and protocol; FIG. 1
[3] = cited from earlier work; remark: listed apart in the source

## NC1(c2ccccc2Cl)CCCCC1=O (stereo not drawn) [norketamine]
[1]; following oral administration of ketamine
  Plasma levels of the metabolite relative to ketamine: three times higher

## CNC1(c2ccccc2Cl)CCCCC1=O (stereo not drawn) [intranasal (nebulized) ketamine, ketamine]
[2]
  Reduction of acute musculoskeletal pain: about 4 points

## CN1CC[C@]23c4c5ccc(O)c4O[C@H]2[C@@H](O)C=C[C@H]3[C@H]1C5.O=S(=O)(O)O [oral morphine, Morphine Sulfate]
[2]
  Reduction of acute musculoskeletal pain: about 4 points

## N[C@@H]1c2cccnc2[C@H](OC(=O)N2CCC(n3c(=O)[nH]c4ncccc43)CC2)CC[C@H]1c1cccc(F)c1F [rimegepant, Rimegepant]
[3]; in vivo, po
  Absolute oral bioavailability: approximately 64%
[3]; in vivo
  Eliminated in unchanged form: ~77 % of the dose
  Major metabolites (i.e., >10%) detected in plasma: no major metabolites
[3]; oral administration of NURTEC Orally Disintegrating Tablet
  Time of maximum concentration: 1.5 h

## CC(C)Cc1ccc(C(C)C(=O)O)cc1 (stereo not drawn) [oral ibuprofen, Ibuprofen]
[2]
  Reduction of acute musculoskeletal pain: 2 points

## CNC1(c2ccccc2Cl)CCCCC1=O (stereo not drawn) [ketamine]
[1]; IV
  Bioavailability: about 100%
[1]; in vivo
  Elimination half-life: 2 to 3 h
[1]; intramuscular injection
  Bioavailability: about 93%
[1]; ketamine given concurrently through the GI, patent's own reasoning, no PK data shown
  Delay of serum peak concentration, GI absorption versus direct (oral mucosal) absorption: 15 to 20 min
[1]; oral route
  Bioavailability: 18-20%
[1]; orally
  Time at which maximal concentrations are reached: 30 min

## CN1CC[C@]23c4c5ccc(O)c4O[C@H]2[C@@H](O)C=C[C@H]3[C@H]1C5 [IV morphine, Morphine]
[2]
  Reduction of acute musculoskeletal pain: 5.1 points
